In publication PMC6247892, “Ficus sycomorus latex: An efficient alternative Egyptian source for horseradish peroxidase in labeling with antibodies for immunodiagnostic kits” (Veterinary World, 2018) one finds Km data, which are given here for 4 compounds.

Structures are written as SMILES. Counter-ions that a name gives are not always drawn. Like-named read-outs stand apart in the source and are kept apart here.

The subject of this test is POL (peroxidase of sycamore fig latex). Briefly: spectrophotometric peroxidase assay, substrate variation. The class given is biochemical, Ficus sycomorus. The note with it: co-substrate H2O2, free enzyme, standard assay pH 5.5, room temperature (28-30°C). The source says:
spectrophotometric peroxidase assay, substrate variation on POL (peroxidase of sycamore fig latex)

With `Cc1cc(-c2cc(C)c(N)c(C)c2)cc(C)c1N` [3,3`,5,5`tetramethylbenzidine], the Km (read-out: Km (mM substrates) / TMB) came out at 7 ± 0.8 mM. As for `Oc1ccc(Cl)c2ccccc12` [4-chloro-1-naphthol], the Km (read-out: Km (mM substrates) / 4C-1N) worked out at 5 ± 0.6 mM. As for `CCn1c(=NN=c2sc3cc(S(=O)(=O)O)ccc3n2CC)sc2cc(S(=O)(=O)O)ccc21` [ABTS], the Km (read-out: Km (mM substrates) / ABTS) came out at 4.5 ± 0.5 mM. On to `Nc1ccccc1N` [o-phenylenediamine dihydrochloride], for which the Km (read-out: Km (mM substrates) / OPD) is 5.8 ± 0.4 mM.
